Measurements from patent US12366579B2, “Sulfur-heterocycle exchange chemistry and uses thereof” (University of Virginia Patent Foundation, priority 2019, dated 2025).

Assays:
[1] = system: HEK293T soluble proteomes; assay: LC-MS chemical proteomics of probe-modified sites in cell proteomes; type: binding, human; details: for unique-modified tyrosine sites among 1,2,4-SuTEx probes: FIG. 4D; for tyrosine specificity, Y/K ratio of modified sites: LC-MS chemical proteomics
Protocol: Proteomes were diluted to 2.3 mg/mL in PBS and sample aliquots (432 μL) were treated with sulfonyl-triazole or -fluoride probes at the indicated concentrations (5 μL, 100× stock in DMSO), mixed gently and incubated for 1 h at room temperature. Probe-modified proteomes were subjected to CuAAC conjugation to desthiobiotin-PEG3-azide (10 μL of 10 mM stock in DMSO; final concentration of 200 μM) using TCEP (10 μL of fresh 50 mM stock in water; 1 mM final concentration), TBTA ligand (33 μL of a 1.7 mM 4:1 t-butanol/DMSO stock, 100 μM final concentration), and CuSO4 (10 μL of 50 mM stock, 1 mM final concentration). Samples were mixed by vortexing and then incubated for 1 h at room temperature. Excess reagents were removed by chloroform-methanol extraction as previously described^51. Protein pellets were re-suspended in 500 μL of 6M urea/25 mM ammonium bicarbonate followed by DTT reduction and IAA alkylation as previously described^5. Excess reagents were removed by chloroform/methanol extraction as described above, and the protein pellet was re-suspended in 500 μL of 25 mM ammonium bicarbonate and then digested to peptides using trypsin/Lys-C (7.5 μg in 15 μL of ammonium bicarbonate, sequencing grade from Promega, Madison, Wisconsin, United States of America) was added to the mixture and incubated for 3 hrs at 37° C. Probe-modified peptides were enriched by avidin affinity chromatography, eluted, and prepared for LC-MS analysis as previously described^51.
A top 10 data-dependent acquisition MS method was used.
Sulfonyl-probe modifications of tyrosine, lysine, and other amino acids were included as a variable (common) modification of +635.27374 Da. […] A Byonic score of 300 was applied for a more inclusive initial evaluation of the search results and thereby consider more possible probe-modified sites. MS1 and MS2 spectra corresponding to the highest-scoring tyrosine- and lysine (internal or non-C terminal)-modified sequences (˜50-100 peptides) were manually verified. […] Distinct peptides containing probe-modified amino acid residues (termed sites) were determined by identifying all unique razor protein and site combinations across all of the proteomes tested.
To compare amino acid residues modified by sulfonyl probes, protein and peptide identifications were accomplished as described above with variable (common) modification of +635.27374 Da on the following amino acid residues: cysteine, aspartic acid, glutamic acid, histidine, lysine, methionine, asparagine, glutamine, arginine, serine, threonine, tryptophan, and tyrosine. For these amino acid comparisons, carbamidomethylation (+57.021464 Da) of cysteines was searched as a variable/common modification to allow for the potential of probe modification on cysteines. Comparisons of probe-modified sites across all probes and cell lines tested were performed using the R package ggplot2 (online at tidyverse.org). Venn diagrams for comparisons were generated using the VennDiagram R package^52.
Proteomes were digested with trypsin protease and desthiobiotin-modified peptides enriched by avidin affinity chromatography, released, and analyzed by high-resolution liquid chromatography-mass spectrometry (LC-MS). Probe-modified peptide-spectrum matches (PSMs) that met a quality control confidence criteria of ≥300 Byonic score^31 and ≤5 ppm mass accuracy were selected for further manual evaluation.

[2] = HPLC assay for solution reactivity of sulfonyl triazole fragments with p-cresol; type: physicochemical; details: for solution reactivity with p-cresol: HPLC assay, TMG base; for time to completion of reaction with p-cresol: TMG 1.1 equivalents, on ice
Protocol: HPLC Assay for Profiling Solution Reactivity and Stability of Sulfonyl Triazole Fragments
The following reagents were prepared and stored on ice prior to use. 0.1 M solution of caffeine in acetonitrile, 1.0 M solution of n-butylamine, p-cresol, tetramethylguanidine […], 1 M HOAc in ACN and 10 mM solution of SuTEx fragment in DMF-ACN mixture (10:90, v/v). 500 μL of fragment solution was transferred to a dram vial on ice. To the mixture, 5.5 μL of TMG and 5.5 μL of p-cresol or n-butylamine was added and solutions were stirred on ice for 6 h. To monitor reactivity, 50 μL aliquots were removed at indicated time points and quenched with 10 μL of a 1:1 mixture of caffeine and HOAc. Samples were injected (1 μL) and analyzed by reverse-phase HPLC on a Shimadzu 1100 Series spectrometer (Shimadzu, Kyoto, Japan) with UV detection at 254 nm. Reaction progress was evaluated by monitoring consumption of starting material (SuTEx fragment) normalized to caffeine standard. Chromatographic separation was performed using a Phenomenex Kinetex C18 column (2.6 μm, 50×4.6 mm) (Phenomenex, Torrance, California, United States of America). Mobile phases A and B were composed of H2O+0.1% HOAc and ACN+0.1% HOAc, respectively. Samples were analyzed using the following analytical conditions: using a flow rate of 0.8 ml min^−1, the gradient was as follows: 0-0.5 min, 15% B; 0.5-6.5 min 85% B; 6.5-7 min 100% B: 7-8.5 min 100% B; 8.5-9 min 15% B; 9-9.8 min 15% B.

Compound: C#CCNC(=O)c1ccc(S(=O)(=O)n2cnc(-c3ccccc3)n2)cc1 [HHS-481, 4-((3-Phenyl-1H-1,2,4-triazol-1-yl)sulfonyl)-N-(prop-2-yn-1-yl)benzamide]
- total number of probe-modified sites (Y and K combined) ([1]; FIG. 4A): ~4,000 sites
- unique-modified tyrosine sites among 1,2,4-SuTEx probes [1]: 445 sites
- tyrosine specificity, Y/K ratio of modified sites ([1]; FIG. 4A): 3.5

Compound: C#CCNC(=O)c1ccc(S(=O)(=O)n2cnc(-c3ccc(OC)cc3)n2)cc1 [HHS-482, 4-((3-(4-Methoxyphenyl)-1H-1,2,4-triazol-1-yl)sulfonyl)-N-(prop-2-yn-1-yl)benzamide]
- total number of probe-modified sites (Y and K combined) ([1]; FIG. 4A): ~3,000 sites
- unique-modified tyrosine sites among 1,2,4-SuTEx probes [1]: 112 sites
- tyrosine specificity, Y/K ratio of modified sites ([1]; FIG. 4A): ~5
- fraction of probe-modified residues/peptides assigned to tyrosines ([1]; high confidence sites): ~75%

Compound: C#CCNC(=O)c1ccc(S(=O)(=O)n2cnc(-c3ccc(F)cc3)n2)cc1 [HHS-483, 4-((3-(4-Fluorophenyl)-1H-1,2,4-triazol-1-yl)sulfonyl)-N-(prop-2-yn-1-yl)benzamide]
- proteome reactivity and tyrosine specificity compared with HHS-481 ([1]; FIG. 4A): comparable reactivity and slightly lowered tyrosine specificity
- unique-modified tyrosine sites among 1,2,4-SuTEx probes [1]: 433 sites

Compound: COc1ccc(-c2ncn(S(=O)(=O)c3ccc(F)cc3)n2)cc1 [JWB135, 1-((4-Fluorophenyl)sulfonyl)-3-(4-methoxyphenyl)-1H-1,2,4-triazole]
- solution reactivity with p-cresol [2]: attenuated reactivity

Compound: COc1ccc(-c2ncn(S(=O)(=O)c3ccc(OC)cc3)n2)cc1 [JWB136, 3-(4-Methoxyphenyl)-1-((4-methoxyphenyl)sulfonyl)-1H-1,2,4-triazole]
- solution reactivity with p-cresol [2]: incomplete reaction

Compound: COc1ccc(-c2ncn(S(=O)(=O)c3ccc(C#N)cc3)n2)cc1 [JWB137, 4-((3-(4-Methoxyphenyl)-1H-1,2,4-triazol-1-yl)sulfonyl)benzonitrile]
- time to completion of reaction with p-cresol [2]: ~5 min

Compound: COc1ccc(-c2ncn(S(=O)(=O)c3cccnc3)n2)cc1 [JWB141, 3-((3-(4-Methoxyphenyl)-1H-1,2,4-triazol-1-yl)sulfonyl)pyridine]
- time to completion of reaction with p-cresol [2]: ~30 min
